Each structure is given as a SMILES string.

The target in this experiment is human ATX (autotaxin, ENPP2), His-tagged (Homo sapiens (Human), UniProt Q13822). Description: Human ATX enzyme inhibition assay (fluorescence quenching, MR121 substrate). The format is biochemical. Conditions: 30 nM ATX, 1 μM MR121 substrate, 30° C., pH 8.0. As for the experimental part:
Human ATX Enzyme Inhibition Assay
ATX inhibition was measured by a fluorescence quenching assay using a specifically labeled substrate analogue (MR121 substrate). To obtain this MR121 substrate, BOC and TBS protected 6-amino-hexanoic acid (R)-3-({2-[3-(2-{2-[2-(2-amino-ethoxy)-ethoxy]-ethoxy}-ethoxy)-propionylamino]-ethoxy}-hydroxy-phosphoryloxy)-2-hydroxy-propyl ester (Ferguson et al., Org. Lett. 2006, 8, 2023) was labeled with MR121 fluorophore [CAS RN 185308-24-1], 1-(3-carboxypropyl)-11-ethyl-1,2,3,4,8,9,10,11-octahydro-dipyrido[3,2-b:2′,3′-i]phenoxazin-13-ium) on the free amine of the ethanolamine side and then, after deprotection, subsequently with tryptophan on the side of the aminohexanoic acid.
Assay working solutions were made as follows:
Assay buffer (50 mM Tris-HCl, 140 mM NaCl, 5 mM KCl, 1 mM CaCl2, 1 mM MgCl2, 0.01% Triton-X-100, pH 8.0;
ATX solution: ATX (human His-tagged) stock solution (1.08 mg/mL in 20 mM bicine, pH 8.5, 0.15 M NaCl, 10% glycerol, 0.3% CHAPS, 0.02% NaN3), diluted to 1.4-2.5× final concentration in assay buffer;
MR121 substrate solution: MR121 substrate stock solution (800 μM MR121 substrate in DMSO), diluted to 2-5× final concentration in assay buffer.
Test compounds (10 mM stock in DMSO, 8 μL) were obtained in 384 well sample plates (Corning Costar #3655) and diluted with 8 μL DMSO. Row-wise serial dilutions were made by transferring 8 μL cpd solution to the next row up to row O. The compound and control solutions were mixed five times and 2 μL were transferred to 384 well assay plates (Corning Costar #3702). Then, 15 μL of 41.7 nM ATX solution was added (30 nM final concentration), mixed five times and then incubated for 15 minutes at 30° C. 10 μL of MR121 substrate solution was added (1 μM final concentration), mixed 30 times and then incubated for 15 minutes at 30° C.
By IC50 is commonly meant the concentration at which inhibition is half-maximal. `CC(=O)N1CCC(c2cc3c(=O)n(CC(=O)N(C)Cc4ccc(C#N)c(Cl)c4)cnc3cn2)CC1` [Example 189, 2-[6-(1-Acetylpiperidin-4-yl)-4-oxopyrido[3,4-d]pyrimidin-3-yl]-N-[(3-chloro-4-cyanophenyl)methyl]-N-methylacetamide] yielded an IC50 of 1 nM. With `CN(Cc1ccc(Cl)c(Cl)c1)C(=O)Cn1cnc2ccc(C3CCN(C(=O)C(O)CO)CC3)cc2c1=O` (centres unmarked) [Example 177], the IC50 came out at 36 nM. This IC50 is about 36-fold higher than that of the compound before. `CC(=O)N1CCN(c2ccc3ncn(CC(=O)NCc4noc(-c5ccc(Cl)cc5)n4)c(=O)c3c2)CC1` [Example 51] displayed an IC50 of 51 nM. The IC50 values of the last two compounds are within 1.5-fold of each other. For `CCCCC(=O)N1CCN(c2ccc3ncn(CC(=O)NCc4ccc(Cl)c(Cl)c4)c(=O)c3c2)CC1` [Example 60], the IC50 turned out to be 10 nM. Next, `C[C@H](O)C(=O)N1CCC(c2ccc3ncn(CC(=O)N(C)Cc4ccc(Cl)c(Cl)c4)c(=O)c3c2)CC1` [Example 175]: 15 nM; `CC(=O)N1CC(C(=O)N2CCN(c3ccc4ncn(CC(=O)N(C)Cc5ccc(Cl)c(Cl)c5)c(=O)c4c3)CC2)C1` [Example 81]: 73 nM; `CC(C)NC(=O)N1CCN(c2ccc3ncn(CC(=O)NCc4ccc(Cl)c(Cl)c4)c(=O)c3c2)CC1` [Example 82, 4-[3-[2-[(3,4-Dichlorophenyl)methylamino]-2-oxoethyl]-4-oxoquinazolin-6-yl]-N-propan-2-ylpiperazine-1-carboxamide]: 43 nM. In turn, `CC(=O)N1CCN(c2ccc3ncn(CC(=O)NCc4ccc(Cl)cc4)c(=O)c3c2)CC1` [Example 10, 2-[6-(4-Acetylpiperazin-1-yl)-4-oxoquinazolin-3-yl]-N-[(4-chlorophenyl)methyl]acetamide] had an IC50 of 96 nM. The figure for `CC(=O)N1CCN(c2ccc3ncn(CC(=O)NCc4ccc(C)c(Cl)c4)c(=O)c3c2)CC1` [Example 42] is 140 nM. Consider `CN(Cc1ccc(Cl)c(Cl)c1)C(=O)Cn1cnc2ccc(C3CCN(C(=O)C4CCOC4)CC3)cc2c1=O` (centres unmarked) [Example 182], for which 8 nM corresponded to half-maximal inhibition (IC50). Next, `CC(=O)N1CCN(c2ccc3ncn(CC(=O)N(C)Cc4ccc(Cl)c(C#N)c4)c(=O)c3c2)CC1` [Example 57, 2-[6-(4-Acetylpiperazin-1-yl)-4-oxoquinazolin-3-yl]-N-[(4-chloro-3-cyanophenyl)methyl]-N-methylacetamide]: 8 nM; `CC(=O)N1CCN(c2ccc3ncn(CC(=O)N(Cc4ccc(Cl)c(Cl)c4)C(C)C)c(=O)c3c2)CC1` [Example 117, 2-[6-(4-Acetylpiperazin-1-yl)-4-oxoquinazolin-3-yl]-N-[(3,4-dichlorophenyl)methyl]-N-propan-2-ylacetamide]: 16 nM; `CN(Cc1ccc(Cl)c(Cl)c1)C(=O)Cn1cnc2ccc(C3CCN(C(=O)CS(N)(=O)=O)CC3)cc2c1=O` [Example 165, N-[(3,4-Dichlorophenyl)methyl]-N-methyl-2-[4-oxo-6-[1-(2-sulfamoylacetyl)piperidin-4-yl]quinazolin-3-yl]acetamide]: 20 nM. In turn, `CC(=O)N1CCN(c2ccc3ncn(CC(=O)NCc4ccc(C(F)(F)F)nc4)c(=O)c3c2)CC1` [Example 16] came in with an IC50 of 207 nM.

Compound `CC(C)[C@@H](O)C(=O)N1CCC(c2ccc3ncn(CC(=O)N(C)Cc4ccc(Cl)c(Cl)c4)c(=O)c3c2)CC1` [Example 169] gave an IC50 of 35 nM. As to `O=C(Cn1cnc2ccc(N3CCN(C(=O)NC4CC4)CC3)cc2c1=O)NCc1ccc(Cl)c(Cl)c1` [Example 83], the IC50 was 30 nM.

Compound `CC(=O)N1CCN(c2ccc3ncn(CC(=O)NCc4ccc(F)cc4)c(=O)c3c2)CC1` [Example 14] displayed an IC50 of 1470 nM. `CC(=O)N1CCC(O)(c2ccc3ncn(CC(=O)N(C)Cc4ccc(C#N)c(Cl)c4)c(=O)c3c2)CC1` [Example 185, 2-[6-(1-Acetyl-4-hydroxypiperidin-4-yl)-4-oxoquinazolin-3-yl]-N-[(3-chloro-4-cyanophenyl)methyl]-N-methylacetamide] registered a half-maximal inhibitory concentration (IC50) of 125 nM. The compound `CC(=O)N1CCN(c2ccc3ncn(CC(=O)NCc4ccc(C#N)cc4F)c(=O)c3c2)CC1` [Example 30] yielded an IC50 of 139 nM. On to `CC(=O)N1CCC(c2ccc3ncn(CC(=O)N(C)Cc4ccc(C#N)c(Cl)c4)c(=O)c3c2)CC1` [Example 125], for which the IC50 was determined as 7 nM. In turn, `COCCOCC(=O)N1CCC(c2ccc3ncn(CC(=O)N(C)Cc4ccc(Cl)c(Cl)c4)c(=O)c3c2)CC1` [Example 166] registered a half-inhibitory concentration (IC50) of 627 nM. `CC(=O)N1CC2CC1CC2c1ccc2ncn(CC(=O)NCc3ccc(Cl)c(Cl)c3)c(=O)c2c1` (centres unmarked) [Example 147, 2-[6-[2-Acetyl-2-azabicyclo[2.2.1]heptan-5-yl]-4-oxoquinazolin-3-yl]-N-[(3,4-dichlorophenyl)methyl]acetamide] registered an IC50 of 140 nM. `CS(=O)(=O)N1CCN(c2ccc3ncn(CC(=O)NCc4ccc(Cl)c(Cl)c4)c(=O)c3c2)CC1` [Example 88, N-[(3,4-Dichlorophenyl)methyl]-2-[6-(4-methylsulfonylpiperazin-1-yl)-4-oxoquinazolin-3-yl]acetamide] had an IC50 of 88 nM. Compound `O=C(Cn1cnc2ccc(N3CCN(C(=O)C4CCCCC4)CC3)cc2c1=O)NCc1ccc(Cl)c(Cl)c1` [Example 65] gave an IC50 of 10 nM.

As for `CC(=O)N1CCC(c2ccc3ncn(CC(=O)N(C)Cc4ccc(Cl)c(Cl)c4)c(=O)c3c2)CC1` [Example 124], the IC50 worked out at 7 nM. The IC50 values of the last two compounds are within 1.5-fold of each other. The figure for `CC(=O)N1CCN(c2ccc3ncn(CC(=O)NCc4ccc(Cl)cn4)c(=O)c3c2)CC1` [Example 12] is 148 nM.

As for `CC(=O)N1CCN(c2ccc3ncn(CC(=O)NCc4cc(Cl)c(Cl)cn4)c(=O)c3c2)CC1` [Example 41], the IC50 is 21 nM. Next, `CN(Cc1ccc(Cl)c(Cl)c1)C(=O)Cn1cnc2ccc(C3CCN(C(=O)C4COCCO4)CC3)cc2c1=O` (centres unmarked) [Example 178]: 34 nM. `CC(C)NC(=O)CN1CCN(c2ccc3ncn(CC(=O)N(C)Cc4ccc(Cl)c(Cl)c4)c(=O)c3c2)CC1` [Example 109] had an IC50 of 35 nM. The IC50 values of the last two compounds are within 1.5-fold of each other. The figure for `CC(=O)N1CCC(c2ccc3ncn(CC(=O)N(C)Cc4ccc(Cl)c(C#N)c4)c(=O)c3c2)CC1` [Example 126] is 12 nM.

Compound `CNC(=O)CN1CCN(c2ccc3ncn(CC(=O)N(C)Cc4ccc(Cl)c(Cl)c4)c(=O)c3c2)CC1` [Example 107, N-[(3,4-Dichlorophenyl)methyl]-N-methyl-2-[6-[4-[2-(methylamino)-2-oxoethyl]piperazin-1-yl]-4-oxoquinazolin-3-yl]acetamide] returned an IC50 of 67 nM. `CO[C@H](C)C(=O)N1CCC(c2ccc3ncn(CC(=O)N(C)Cc4ccc(C#N)c(Cl)c4)c(=O)c3c2)CC1` [Example 158] showed an IC50 of 2 nM. Compared with the last compound, the IC50 is about 34-fold lower. Turning to `O=C(Cn1cnc2ccc(N3CCN(C(=O)C4CCC4)CC3)cc2c1=O)NCc1ccc(Cl)c(Cl)c1` [Example 63], half-maximal inhibition (IC50) required 11 nM. On to `COCCC(=O)N1CCC(c2cc3c(=O)n(CC(=O)N(C)Cc4ccc(C#N)c(Cl)c4)cnc3cn2)CC1` [Example 190, N-[(3-Chloro-4-cyanophenyl)methyl]-2-[6-[1-(3-methoxypropanoyl)piperidin-4-yl]-4-oxopyrido[3,4-d]pyrimidin-3-yl]-N-methylacetamide], for which half-maximal inhibition (IC50) required 1 nM. The figure for `CC(=O)N1CCN(c2ccc3ncn(CC(=O)NCCc4ccc(Cl)c(Cl)c4)c(=O)c3c2)CC1` [Example 49] is 179 nM.

These data come from US10676446B2, “Bicyclic quinazolinone derivatives” (Hoffmann-La Roche Inc., priority 2015, dated 2020).
